Here are results for one molecule from paper PMC4810081, “Venetoclax (ABT-199) Might Act as a Perpetrator in Pharmacokinetic Drug–Drug Interactions” (Pharmaceutics, 2016).

The term IC50 denotes the concentration at which inhibition is half-maximal. The term IC20 denotes the concentration needed for an effect of 20%. Read a high IC20 as a need for much substance.

The test system of data set [1] is P-gp. The data set can be described thus: P-gp inhibition, calcein assay in P388/dx cells. The format is in vitro ADME. Conditions: mouse, P388/dx cells over-expressing murine mdr1a/b, probe calcein. As for the experimental part:
P388 and P388/dx cells. For testing P-gp inhibition, the murine monocytic leukemia cell line P388/dx over-expressing murine mdr1a/b and the corresponding parental cell line P388 were used. Both cell lines were kindly provided by D. Ballinari (Pharmacia & Upjohn, Milano, Italy). The cells were cultured under standard cell culture conditions with an RPMI 1640 medium supplemented with 10% FCS, 2 mM of glutamine, […] of β-mercaptoethanol, 100 U/mL of penicillin, and 100 µg/mL of streptomycin sulfate. For maintaining P-gp expression, the culture medium for P388/dx was supplemented with 0.43 µM of doxorubicin. One day before the assay, both cell lines were fed with a doxorubicin-free culture medium.
P-gp inhibition was assessed with the calcein assay in P388/dx cells as described previously. Inhibition of P-gp increases intracellular calcein fluorescence in these cells. Each venetoclax concentration (0.005–50 µM) was tested in octuplet, and the experiment was performed in quadruplicate.

For data set [2], the target named is T1, CYP1A2 (Homo sapiens, UniProt P05177).
T1 construct: purchased Promega Corporation (Madison, WI, USA)
Kind of data set: CYP1A2 inhibition, P450-Glo CYP1A2 Screening System. The format is in vitro ADME. Conditions: luciferin-ME substrate, 0.05–100 µM tested. How it is done:
(§1) Inhibition studies for CYP2B6, CYP2D6, CYP2C19 and CYP3A4 were performed with the CYP2B6/EFC, CYP2D6/AMMC, the CYP2C19/CEC, and the CYP3A4/BFC High Throughput Inhibitor Screening Kit according to the manufacturer’s instructions. The kits contain the respective recombinant CYP and fluorogenic substrates, which are blocked dyes emitting a fluorescence signal when cleaved by the enzyme. For testing CYP1A2 inhibition, the P450-Glo CYP1A2 Screening System was used according to the manufacturer’s instructions. The kit contains the luminogenic CYP1A2 substrate luciferin-ME, which is converted by CYP1A2 into luciferin-generating light when incubated with the luciferin detection reagent of the kit. Eight concentrations of venetoclax in duplicates (0.009–20 µM) were tested in the fluorescence assays, and eight concentrations in triplicate (0.05–100 µM) were tested for the luminogenic assay. Each experiment was conducted in triplicate.

Data set [3] has as its target T2, CYP2B6 (Homo sapiens, UniProt P20813).
T2 construct: purchased Becton Dickinson Biosciences (Heidelberg, Germany)
The data set can be described thus: CYP2B6 inhibition, CYP2B6/EFC High Throughput Inhibitor Screening Kit. In kind it is in vitro ADME. How it is done: as §1

In data set [4] the target is T3, CYP2C19 (Homo sapiens, UniProt P33261).
T3 construct: purchased Becton Dickinson Biosciences (Heidelberg, Germany)
The data set can be described thus: CYP2C19 inhibition, CYP2C19/CEC High Throughput Inhibitor Screening Kit. As to conditions: recombinant CYP, fluorogenic substrate. The format is in vitro ADME. As for the experimental part: as §1

Data set [5] concerns LS180 cells. The data set can be described thus: Growth inhibition (proliferation) assay in LS180 cells. The format is cell-based. Conditions: Homo sapiens, crystal violet staining. How it is done: (§2) LS180 cells. The human colon adenocarcinoma cell line LS180 (available at ATCC, Manassas, VA, USA) is one of the standard models for investigating pregnane X receptor (PXR) and aryl hydrocarbon receptor (AhR) mediated induction and was thus used for induction experiments. Cells were cultured under standard cell culture conditions with DMEM supplemented with 10% FCS, 2 mM of glutamine, 100 U/mL of penicillin, 100 µg/mL of streptomycin sulfate, and 0.1 mM of nonessential amino acids.
Growth inhibition assays in LS180 cells were conducted to determine suitable maximum concentrations for the induction assay without profound antiproliferative effects. Proliferation was quantified by crystal violet staining of the surviving cells as described previously. Each experiment was performed at least in triplicate with n = 8 wells for each concentration (0.1–100 µM). The IC20 for proliferation inhibition by venetoclax was 8.4 ± 1.0 µM; thus, the maximum concentration for the induction assay was set to 10 µM, ensuring that about 80% of the cells will survive.

Data set [6] has as its system SLCO1B1. The data set can be described thus: Induction assay, SLCO1B1 mRNA by real-time RT-PCR in LS180 cells. In kind it is in vitro ADME, human. As to conditions: four days, at 5 µM. As for the experimental part: as §2
(§3) For the induction experiments, LS180 cells were seeded in 75 cm^2 culturing flasks and incubated for three days. […]
(§4) RNA was isolated using the GenElute™ Mammalian Total RNA Miniprep Kit, and cDNA was synthesized with the RevertAid™ H Minus First Strand cDNA Synthesis Kit according to the manufacturer's instructions. mRNA expression was quantified by real-time RT-PCR with the LightCycler® 480 (Roche Applied Science, Mannheim, Germany) as described previously. […] Data were evaluated via calibrator-normalized relative quantification with efficiency correction using the LightCycler® 480 software version 1.5 (Roche Applied Science, Mannheim, Germany). […] The following target genes were quantified: CYP1A1, CYP1A2, CYP3A4, ABCB1, ABCC2, ABCG2, SLCO1B1 (coding for OATP1B1), UDP-glucuronosyltransferase 1A3 (UGT1A3), and UGT1A9.
On the technique in general: In qPCR the cycle at which signal appears reflects the starting amount.

The test system of data set [7] is ABCC2. The data set can be described thus: Induction assay, ABCC2 mRNA by real-time RT-PCR in LS180 cells. In kind it is in vitro ADME, human. As to conditions: four days, 0.01–10 µM. How it is done:
as §2, §3, §4

Data set [8] concerns P-gp. Kind of data set: Western blot of P-gp protein expression in LS180 cells. In kind it is in vitro ADME, human. As to conditions: four days, at 1 and 10 µM. As for the experimental part:
(§5) For the induction experiments, LS180 cells were seeded in 75 cm^2 culturing flasks and incubated for three days. Cells were then treated with a culture medium containing venetoclax (0.01–10 µM) in quintuplicate for four consecutive days. Rifampicin (20 µM) served as a positive control for PXR-driven genes and culture medium as a negative control. All incubation solutions were adjusted to 0.02% DMSO. After harvesting, cells were split for RNA and protein extraction.
(§6) To exemplarily verify the effects of venetoclax on mRNA expression, protein expressions of P-gp and CYP1A2 were analyzed in triplicate by SDS polyacrylamide gel electrophoresis (SDS-PAGE) and Western blotting. In brief, cell lysates containing 20 µg protein were mixed with 5× sample buffer (containing Tris–HCl, SDS, DTT, bromophenol blue, and glycerol) and subjected to 10% SDS-PAGE. Afterwards, proteins were electrotransferred to nitrocellulose nitrate membranes. Blots were blocked by incubation for 20–40 min with 5% Slim-Fast® (w/v) in phosphate-buffered saline containing 0.1% Tween®20. […] Bands were visualized by enhanced chemiluminescence using the SuperSignal®West Pico Chemiluminescent Substrate Kit and recorded by FluorChem Q SA AlphaView Version 3.2.2, Cell Biosciences (Santa Clara, CA, USA).

Data set [9] deals with CYP1A2. Kind of data set: Western blot of CYP1A2 protein expression in LS180 cells. The format is in vitro ADME, human. As to conditions: four days. As for the experimental part: as §5, §6
For orientation: In western blotting, separated proteins are transferred to a membrane and probed.

Details of data set [10]: method as in PMID 26639348, PMID 22184378, PMID 27520294. As to conditions: cited from earlier work.
Data set [11] concerns Bcl-xL. More on the design: method as in PMID 26639348, PMID 23291630. As to conditions: cited from earlier work.

T2 sequence (P20813 whole entry): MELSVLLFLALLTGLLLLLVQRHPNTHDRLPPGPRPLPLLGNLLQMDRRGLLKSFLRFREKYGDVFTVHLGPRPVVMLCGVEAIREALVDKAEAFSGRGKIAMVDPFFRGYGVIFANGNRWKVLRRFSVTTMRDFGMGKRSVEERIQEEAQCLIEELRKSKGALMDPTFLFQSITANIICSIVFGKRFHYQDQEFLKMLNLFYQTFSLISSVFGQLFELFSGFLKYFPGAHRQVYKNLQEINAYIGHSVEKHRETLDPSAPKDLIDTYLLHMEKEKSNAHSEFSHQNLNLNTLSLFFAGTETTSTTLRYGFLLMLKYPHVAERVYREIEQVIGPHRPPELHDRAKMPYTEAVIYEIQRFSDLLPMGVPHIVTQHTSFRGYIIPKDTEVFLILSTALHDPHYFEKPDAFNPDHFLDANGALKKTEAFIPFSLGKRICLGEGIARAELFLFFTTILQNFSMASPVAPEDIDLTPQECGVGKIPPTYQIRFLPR
T3 sequence (P33261 whole entry): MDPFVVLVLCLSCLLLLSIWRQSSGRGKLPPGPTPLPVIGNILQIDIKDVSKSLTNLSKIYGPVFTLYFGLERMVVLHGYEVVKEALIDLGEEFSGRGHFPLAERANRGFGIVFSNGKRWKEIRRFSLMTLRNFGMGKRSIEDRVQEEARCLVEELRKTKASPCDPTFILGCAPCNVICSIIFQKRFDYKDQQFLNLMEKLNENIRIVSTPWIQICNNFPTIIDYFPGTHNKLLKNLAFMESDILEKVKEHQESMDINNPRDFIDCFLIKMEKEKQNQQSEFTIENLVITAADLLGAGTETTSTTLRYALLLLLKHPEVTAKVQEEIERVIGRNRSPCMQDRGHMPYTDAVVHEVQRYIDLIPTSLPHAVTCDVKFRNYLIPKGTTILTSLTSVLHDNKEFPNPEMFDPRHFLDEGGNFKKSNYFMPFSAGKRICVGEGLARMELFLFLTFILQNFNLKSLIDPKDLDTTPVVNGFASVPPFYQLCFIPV
T1 sequence (P05177 whole entry): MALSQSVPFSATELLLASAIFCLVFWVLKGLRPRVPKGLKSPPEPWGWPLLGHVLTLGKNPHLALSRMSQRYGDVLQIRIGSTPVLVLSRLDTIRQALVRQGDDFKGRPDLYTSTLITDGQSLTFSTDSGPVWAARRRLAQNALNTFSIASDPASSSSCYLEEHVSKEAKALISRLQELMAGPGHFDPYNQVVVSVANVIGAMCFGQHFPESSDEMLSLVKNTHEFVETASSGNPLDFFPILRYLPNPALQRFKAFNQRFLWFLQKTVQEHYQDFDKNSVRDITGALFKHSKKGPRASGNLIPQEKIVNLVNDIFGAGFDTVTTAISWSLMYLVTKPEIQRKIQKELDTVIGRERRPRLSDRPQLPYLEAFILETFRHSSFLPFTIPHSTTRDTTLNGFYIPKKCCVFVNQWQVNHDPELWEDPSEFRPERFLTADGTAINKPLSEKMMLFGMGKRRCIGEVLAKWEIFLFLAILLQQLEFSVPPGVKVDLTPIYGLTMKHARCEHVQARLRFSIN

As to `CC1(C)CCC(CN2CCN(c3ccc(C(=O)NS(=O)(=O)c4ccc(NCC5CCOCC5)c([N+](=O)[O-])c4)c(Oc4cnc5[nH]ccc5c4)c3)CC2)=C(c2ccc(Cl)cc2)C1` [Venetoclax], the IC50 in [1] is 30 ± 3.7 µM; in [4], 14.2 ± 1 µM. Further, the “IC50 CYP1A2 inhibition” value in [2] was “no inhibition”. Moreover, in data set [3] (at 20 µM), the “increase of CYP2B6 activity” value is recorded as 1.7 fold. Also, the “IC50 CYP2B6 inhibition” value in data set [3] (recombinant CYP, fluorogenic substrate, 0.009–20 µM tested) is “activation”. The IC20 in data set [5] amounted to 8.4 ± 1 µM. In [6], the “mRNA expression of SLCO1B1” value is “suppressed”. In [7], the “mRNA expression of ABCC2” value is on record as “unchanged”. Moreover, the P-gp protein expression entry in [8] is “suppression”. Moreover, the CYP1A2 protein expression entry in data set [9] is reported as “induction”. The Therapeutic plasma concentrations result in data set [10] is listed as “about 5 µM”. Besides, in data set [11], the Bcl-xL inhibition entry was “does not inhibit”.
